Values quoted from earlier work in PMC3356383, “Efficacious Intermittent Dosing of a Novel JAK2 Inhibitor in Mouse Models of Polycythemia Vera” (PLoS ONE, 2012).

System: murine model of PV
Design: method as in PMID 18394554
Settings: 42 days of continuous treatment; cited from earlier work

## Cc1cnc(Nc2ccc(OCCN3CCCC3)cc2)nc1Nc1cccc(S(=O)(=O)NC(C)(C)C)c1 [TG101348]
  Hematocrit reduction: 18%
